Data taken from ChEMBL document CHEMBL3880431, “Heme oxygenase inhibitors, screening methods for heme oxygenase inhibitors and methods of use of heme oxygenase inhibitors for antimicrobial therapy” (2013).
The source made the active and inactive calls. No cut-off for these calls is given here.

Assays:
[1] = Lipophilicity, log P of the compound; type: physicochemical; conditions: octanol/water; read-out: logP
[2] = target: T1, Biliverdin-producing heme oxygenase (Neisseria meningitidis, UniProt Q9AH50); assay: Binding affinity to Neisseria meningitidis wild type apo heme oxygenase expressed in Escherichia coli BL21(DE3) pLysS by spectrofluorimetric analysis
T1 sequence (Q9AH50 whole entry): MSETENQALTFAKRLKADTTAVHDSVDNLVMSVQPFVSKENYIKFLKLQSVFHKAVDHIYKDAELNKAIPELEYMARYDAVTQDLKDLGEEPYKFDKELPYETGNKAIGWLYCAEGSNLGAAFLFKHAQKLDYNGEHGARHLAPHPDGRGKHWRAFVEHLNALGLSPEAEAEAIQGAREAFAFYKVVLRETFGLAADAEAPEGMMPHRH

[3] = target: T2, Heme oxygenase (Pseudomonas aeruginosa, UniProt O69002); assay: Binding affinity to Pseudomonas aeruginosa MPAO1 wild type apo heme oxygenase by spectrofluorimetric analysis
T2 sequence (O69002 whole entry): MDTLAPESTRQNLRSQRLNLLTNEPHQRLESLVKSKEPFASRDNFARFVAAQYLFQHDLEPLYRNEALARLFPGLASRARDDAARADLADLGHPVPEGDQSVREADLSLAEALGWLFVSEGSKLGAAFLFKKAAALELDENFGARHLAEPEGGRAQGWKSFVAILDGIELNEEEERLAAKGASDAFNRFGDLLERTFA

[4] = Solubility of the compound in ethanol; type: physicochemical
[5] = system: Pseudomonas aeruginosa; assay: Growth inhibition of Pseudomonas aeruginosa MPAO1 at >250 uM after 10 hrs; type: functional
[6] = Solubility of the compound in methanol; type: physicochemical
[7] = system: Pseudomonas aeruginosa; assay: Growth inhibition of Pseudomonas aeruginosa MPAO1 assessed as cell growth recovery up to 1500 uM after 10 hrs in presence of 40 uM of Fe(3)-pyoverdin relative to control; type: functional; design: scale not given: the % may be the effect or the level left
[8] = Decrease in heme oxygenase protein expression level in Pseudomonas aeruginosa MPAO1 at 0.5 mM measured after 6 hrs in presence of 40 uM of Fe(3)-pyoverdin by Western blot analysis; type: functional
[9] = system: Pseudomonas aeruginosa; assay: Growth inhibition of Pseudomonas aeruginosa MPAO1 at >=500 uM after 10 hrs in presence of 40 uM of Fe(3)-pyoverdin; type: functional
[10] = Decrease in heme oxygenase protein expression level in Pseudomonas aeruginosa MPAO1 at 0.5 mM measured every hr for 12 hrs in presence of 25 uM of hemoglobin by Western blot analysis; type: functional
[11] = system: Pseudomonas aeruginosa; assay: Growth inhibition of Pseudomonas aeruginosa MPAO1 at 500 uM measured up to 6 hrs in presence of 25 uM of hemoglobin; type: functional
[12] = Decrease in heme oxygenase protein expression level in Pseudomonas aeruginosa MPAO1 at 0.5 mM measured every hr for 12 hrs in presence of 40 uM of Fe(3)-pyoverdin by Western blot analysis; type: functional
[13] = system: Pseudomonas aeruginosa; assay: Growth inhibition of Pseudomonas aeruginosa MPAO1 assessed as induction of slower cell growth at 500 uM measured up to 6 hrs; type: functional
[14] = system: Pseudomonas aeruginosa; assay: Antimicrobial activity against Pseudomonas aeruginosa MPAO1 after 10 hrs; type: functional; conditions: MPAO1, 10 h
[15] = system: Pseudomonas aeruginosa; assay: Antimicrobial activity against Pseudomonas aeruginosa MPAO1 infected in Caenorhabditis elegans assessed as prolongation of survival of infected worms; type: functional
[16] = Solubility of the compound in methanol/ethanol; type: physicochemical

Structure (SMILES)	logP [1]	solubility [4]	solubility [6]	also measured
COc1ccc(C(=O)CCC(=O)O)c(C)c1	1.6	Soluble		Kd [2]: Active; Kd [3]: Active
CN(C)c1ccc(/C=N/n2nnnc2N)cc1	0.76			growth inhibition (GI) [5]: Active; Kd ([2]; read-out: Kd): 14.1 µM; Kd ([3]; read-out: Kd): 15.8 µM
Nc1cc(-c2ccc(F)cc2)nc(N)n1	1.07	Soluble		Kd [2]: Active; Kd [3]: Active
O=C(O)C(=O)Cc1c[nH]c2ccccc12	1.59	Soluble		Kd [2]: Active; Kd [3]: Active
C(=N\Nc1nc(-c2cccnc2)cs1)/c1cccnc1	4.24		Insoluble	Activity [7]: 40%; Activity [8]: Active; growth inhibition (GI) [9]: Active; growth inhibition (GI) [5]: Active; Kd ([2]; read-out: Kd): 15.6 µM; Activity [10]: Active; growth inhibition (GI) [11]: Active; Kd ([3]; read-out: Kd): 20.9 µM; Activity [12]: Active; Activity [13]: Active
CN(CC(=O)O)c1nc2ccc([N+](=O)[O-])cc2s1	1.92		Soluble	Kd [2]: Active; Kd [3]: Active
Nc1cnccc1C(=O)O	0.32 to 3			Kd ([2]; read-out: Kd): 33.5 µM; Kd ([3]; read-out: Kd): 44.7 µM
O=C(O)Cn1c(=O)c2cc3c(=O)n(CC(=O)O)c(=O)c3cc2c1=O	-0.68		Insoluble	Kd ([2]; read-out: Kd): 20.9 µM; Kd ([3]; read-out: Kd): 6.1 µM
Cc1ccccc1C(=O)Nc1cc(C(=O)O)cc(C(=O)O)c1	2.62		Insoluble	Kd ([2]; read-out: Kd): 28.8 µM; Kd ([3]; read-out: Kd): 72.8 µM
NC(=O)c1ccc(NC(=O)/C=C\C(=O)O)cc1Cl	0.79		Soluble	Kd ([2]; read-out: Kd): 239 µM; Kd ([3]; read-out: Kd): 187 µM
O=[N+]([O-])c1cccc(CN2CCNCC2)c1	1.18		Soluble	MIC50 [14]: > 1000 µg/mL
Cc1ccc(S(=O)(=O)NC(=O)NCc2ccco2)cc1	1.2	Insoluble		

Continued, in another order:

logP [1]	solubility [4]	solubility [6]	Structure (SMILES)	also measured
1.17		Soluble	CCN(CC)c1ccc(/C=N/n2nnnc2N)c(O)c1	Kd [2]: Active; Kd [3]: Active
1.46		Insoluble	O=C(O)CSc1ncnc2ccccc12	MIC50 [14]: > 1000 µg/mL
3.56		Soluble	O=C(Nc1ccc(-c2cn3ccccc3n2)cc1)c1ccccc1[N+](=O)[O-]	MIC50 [14]: > 380 µg/mL
0.58	Soluble	Soluble	O=C(O)CN1C(=O)c2ccccc2C1=O	
4.62		Insoluble	O=[N+]([O-])c1cccc(/C=N/Nc2ccc(S(=O)(=O)O)cc2)c1	MIC50 [14]: > 1000 µg/mL
2.8	Soluble		O=C1C=C(Nc2ccccc2O)c2ccccc2C1=O	
2.07		Soluble	COc1cc(/C=N/Cc2ccco2)ccc1O	Kd [2]: Active; Kd [3]: Active
3.51		Soluble	CC(=O)Oc1ccc(-c2cccc(C(=O)O)c2)cc1	MIC50 [14]: > 1000 µg/mL
1.3	Insoluble		COc1cc(CC(=O)O)c([N+](=O)[O-])cc1OC	
3.77		Soluble	CN(C)c1ccc(/C=N/NC(=N)N)cc1	Activity [15]: Active
1.6	Soluble		Cn1c(=N)n(CC(=O)O)c2ccccc21	
2.71			O=[N+]([O-])c1ccc(O)c(/C=N/c2cccc(CO)c2)c1	solubility [16]: Insoluble
3.16	Insoluble		O=C(CNc1ccc2ccccc2c1)N/N=C/c1ccccn1	
2.63	Insoluble		Cc1n[nH]c(Nc2ccccc2F)c1[N+](=O)[O-]	
0.91	Soluble		O=C(O)CCn1ncc2ccccc21	
-0.72	Insoluble		N#CC(C#N)=CNNC(=O)CNC(=O)c1ccccc1[N+](=O)[O-]	
